Marks after values point to notes of the source that are not given here.
Legend:
[1] = oxygen superoxide scavenging (recent research); type: biochemical; details: stabilised leucomethylene blue
[2] = adrenochrome system: auto-oxidation of dl-epinephrine; type: biochemical; details: dl-epinephrine 500 μM, pH 10.2; for oxidation peak of Leucomethylene blue (665 nm) / effect on appearance of adrenochrome at 310 nm / oxidation peak of Leucothionine (605 nm): 50 μM; for appearance of adrenochrome (310 nm) in presence of leuco compound: leuco compound 50 μM; for appearance of adrenochrome (310 nm) in presence of leuco compound / effect on appearance of adrenochrome at 310 nm: 30° C.
Text: In another experiment, the results of the experiment in Example 1 above were confirmed by using the adrenochrome system. In this system, dl-epinephrine is auto-oxidised under alkaline conditions by a superoxide dependent pathway. The reaction rate of this reaction can be decreased or interrupted by the addition of SOD, which scavenges superoxide. […] In this system, the rate of auto-oxidation of dl-epinephrine is decreased by the presence of either leuco compound, while the leuco compounds themselves are oxidised by superoxide in a rate dependent manner.
In this experiment, dl-epinephrine (500 μM) was allowed to auto-oxidise in 50 mM sodium carbonate buffer (pH 10.2) containing EDTA (100 μM) at 30° C. under these conditions, epinephrine is oxidised to adrenochrome (310 or 485 nm increase in absorption).

[3] = xanthine/xanthine oxidase superoxide assay: oxidation of leuco compounds, with SOD added after sixth minute; type: biochemical; details: for effect of addition of SOD on rate of oxidation of the leuco compound: 5 units of SOD added after the sixth minute; for oxidation of leucomethylene blue (665 nm), rate of change of optical density / oxidation of leucothionine (605 nm), rate of change of optical density: 12.5 μM
Text: The principle upon which the following assay is based is that the enzyme xanthine oxidase acts on xanthine to oxidise xanthine and thereby to reduce ferricytochrome C by a mechanism which, at least partly, involves superoxide. Thus, the reduction (and increase) in optical density of ferricytochrome C is dependent on superoxide as a reductant. The inclusion of superoxide dismutase (“SOD”) in the assay serves to dismutate some of the available superoxide, thus causing a decrease in the rate of reduction of ferricytochrome C. […]
Superoxide is a single electron reductant or oxidant.
To explore the effect of leucothionine and leucomethylene blue, these compounds were mixed at 12.5 μM concentration in 50 mM potassium phosphate buffer (pH 7.8) with xanthine (50 μM) and EDTA (100 μM) buttermilk xanthine oxidase (around […]) was then added to give a rate of increase in absorbance of about 0.1 optical density units (for methylene blue at 665 nm and for thionine at 605 nm) per minute at 30° C. above controls using leucothionine or leucomethylene blue, potassium phosphate buffer, xanthine and EDTA alone.

[4] = direct oxidation of leuco compounds by potassium superoxide; type: biochemical; details: for final optical density leucomethylene blue (665 nm) / direct oxidation of the leuco compound by potassium superoxide / final optical density leucothionine (605 nm): approximately 10 μM, pH 7.8; for final optical density leucomethylene blue (665 nm) / final optical density leucothionine (605 nm): potassium superoxide; for colour change of the cell: after potassium superoxide addition; for direct oxidation of the leuco compound by potassium superoxide: EDTA 100 μM
Procedure: In a further experiment, potassium superoxide was added to a reaction cell containing buffers, EDTA and concentrations of leucothionine and leucomethylene blue. Direct oxidation of the leuco compounds was observed by superoxide.
Potassium superoxide was added directly to nitrogen gassed potassium phosphate buffer (pH 7.8) containing EDTA (100 μM) and approximately 10 μM concentration of leucothionine and leucomethylene blue.
Due to the effervescence of the cell, a known property of potassium superoxide in water, no measurements were possible in the first 4 minutes of the reaction.

haemoglobin = details: chronic toxicity studies, laboratory animals; cited from earlier work
[5] = minute 1, before SOD, pH 7.8, 30° C.
[6] = minute 2, before SOD, pH 7.8, 30° C.
[7] = minute 3, before SOD, pH 7.8, 30° C.
[8] = minute 4, before SOD, pH 7.8, 30° C.
[9] = minute 5, before SOD, pH 7.8, 30° C.
[10] = minute 6, before SOD, pH 7.8, 30° C.
[11] = minute 7, after addition of 5 units of SOD
[12] = minute 8, after addition of 5 units of SOD
[13] = minute 9, after addition of 5 units of SOD
[14] = minute 10, after addition of 5 units of SOD
[15] = minute 11, after addition of 5 units of SOD
[16] = minute 12, after addition of 5 units of SOD

## CN(C)c1ccc2c(c1)Sc1cc(N(C)C)ccc1N2 [leucomethylene blue]
[1]
  oxygen superoxide scavenging: powerful oxygen superoxide scavenger
[2]; 0 minutes
  oxidation peak of Leucomethylene blue (665 nm): 0.006
  appearance of adrenochrome (310 nm) in presence of leuco compound: 0.005
[2]
  effect on appearance of adrenochrome at 310 nm: effective in reducing the appearance of adrenochrome
[2]; 1 minute
  oxidation peak of Leucomethylene blue (665 nm): 0.093
  appearance of adrenochrome (310 nm) in presence of leuco compound: 0.031
[2]; 2 minutes
  oxidation peak of Leucomethylene blue (665 nm): 0.110
  appearance of adrenochrome (310 nm) in presence of leuco compound: 0.021
[2]; 3 minutes
  oxidation peak of Leucomethylene blue (665 nm): 0.120
  appearance of adrenochrome (310 nm) in presence of leuco compound: 0.030
[2]; 4 minutes
  oxidation peak of Leucomethylene blue (665 nm): 0.116
  appearance of adrenochrome (310 nm) in presence of leuco compound: 0.035
[2]; 5 minutes
  oxidation peak of Leucomethylene blue (665 nm): 0.121
  appearance of adrenochrome (310 nm) in presence of leuco compound: 0.031
[2]; 6 minutes
  oxidation peak of Leucomethylene blue (665 nm): 0.119
  appearance of adrenochrome (310 nm) in presence of leuco compound: 0.038
[3]
  effect of addition of SOD on rate of oxidation of the leuco compound: decreased the rate of oxidation
[3]; [5]
  oxidation of leucomethylene blue (665 nm), rate of change of optical density: 0.096
[3]; [6]
  oxidation of leucomethylene blue (665 nm), rate of change of optical density: 0.102
[3]; [7]
  oxidation of leucomethylene blue (665 nm), rate of change of optical density: 0.110
[3]; [8]
  oxidation of leucomethylene blue (665 nm), rate of change of optical density: 0.101
[3]; [9]
  oxidation of leucomethylene blue (665 nm), rate of change of optical density: 0.099
[3]; [10]
  oxidation of leucomethylene blue (665 nm), rate of change of optical density: 0.103
[3]; [11]
  oxidation of leucomethylene blue (665 nm), rate of change of optical density: 0.030 *
[3]; [12]
  oxidation of leucomethylene blue (665 nm), rate of change of optical density: 0.017
[3]; [13]
  oxidation of leucomethylene blue (665 nm), rate of change of optical density: 0.014
[3]; [14]
  oxidation of leucomethylene blue (665 nm), rate of change of optical density: 0.013
[3]; [15]
  oxidation of leucomethylene blue (665 nm), rate of change of optical density: 0.010
[3]; [16]
  oxidation of leucomethylene blue (665 nm), rate of change of optical density: 0.010
[4]; 0 minutes
  final optical density leucomethylene blue (665 nm): 0.015
[4]; 5 minutes
  final optical density leucomethylene blue (665 nm): 0.38
[4]; 6 minutes
  final optical density leucomethylene blue (665 nm): 0.44
[4]; 7 minutes
  final optical density leucomethylene blue (665 nm): 0.46
[4]; 8 minutes
  final optical density leucomethylene blue (665 nm): 0.44
[4]
  colour change of the cell: colourless to blue
  direct oxidation of the leuco compound by potassium superoxide: rapidly oxidised to their coloured oxidised states

## Nc1ccc2c(c1)Sc1cc(N)ccc1N2 [leucothionine]
[2]; 0 minutes
  oxidation peak of Leucothionine (605 nm): 0.007
  appearance of adrenochrome (310 nm) in presence of leuco compound: 0.005
[2]
  effect on appearance of adrenochrome at 310 nm: effective in reducing the appearance of adrenochrome
[2]; 1 minute
  oxidation peak of Leucothionine (605 nm): 0.083
  appearance of adrenochrome (310 nm) in presence of leuco compound: 0.034
[2]; 2 minutes
  oxidation peak of Leucothionine (605 nm): 0.121
  appearance of adrenochrome (310 nm) in presence of leuco compound: 0.027
[2]; 3 minutes
  oxidation peak of Leucothionine (605 nm): 0.110
  appearance of adrenochrome (310 nm) in presence of leuco compound: 0.033
[2]; 4 minutes
  oxidation peak of Leucothionine (605 nm): 0.114
  appearance of adrenochrome (310 nm) in presence of leuco compound: 0.034
[2]; 5 minutes
  oxidation peak of Leucothionine (605 nm): 0.116
  appearance of adrenochrome (310 nm) in presence of leuco compound: 0.028
[2]; 6 minutes
  oxidation peak of Leucothionine (605 nm): 0.120
  appearance of adrenochrome (310 nm) in presence of leuco compound: 0.032
[3]
  effect of addition of SOD on rate of oxidation of the leuco compound: decreased the rate of oxidation
[3]; [5]
  oxidation of leucothionine (605 nm), rate of change of optical density: 0.086
[3]; [6]
  oxidation of leucothionine (605 nm), rate of change of optical density: 0.093
[3]; [7]
  oxidation of leucothionine (605 nm), rate of change of optical density: 0.093
[3]; [8]
  oxidation of leucothionine (605 nm), rate of change of optical density: 0.095
[3]; [9]
  oxidation of leucothionine (605 nm), rate of change of optical density: 0.101
[3]; [10]
  oxidation of leucothionine (605 nm), rate of change of optical density: 0.096
[3]; [11]
  oxidation of leucothionine (605 nm), rate of change of optical density: 0.041 *
[3]; [12]
  oxidation of leucothionine (605 nm), rate of change of optical density: 0.009
[3]; [13]
  oxidation of leucothionine (605 nm), rate of change of optical density: 0.009
[3]; [14]
  oxidation of leucothionine (605 nm), rate of change of optical density: 0.011
[3]; [15]
  oxidation of leucothionine (605 nm), rate of change of optical density: 0.008
[3]; [16]
  oxidation of leucothionine (605 nm), rate of change of optical density: 0.009
[4]; 0 minutes
  final optical density leucothionine (605 nm): 0.035
[4]; 5 minutes
  final optical density leucothionine (605 nm): 0.42
[4]; 6 minutes
  final optical density leucothionine (605 nm): 0.45
[4]; 7 minutes
  final optical density leucothionine (605 nm): 0.45
[4]; 8 minutes
  final optical density leucothionine (605 nm): 0.46
[4]
  colour change of the cell: purple
  direct oxidation of the leuco compound by potassium superoxide: rapidly oxidised to their coloured oxidised states

## CN(C)c1ccc2nc3ccc(=[N+](C)C)cc-3sc2c1 [methylene blue]
haemoglobin
  haematological toxicity on repeated administration of high doses: causes oxidation of haemoglobin to methaemoglobin and tissue accumulation of Heinz bodies
